Measured values from the NIST ThermoML archive (doi:10.1016/j.jct.2004.12.014).

Legend:
[1] = xn = mol fraction of the nth substance listed; conditions: 318.15 K, 101 kPa, Liquid
[2] = excess molar enthalpy (molar enthalpy of mixing); xn = mol fraction of the nth substance listed; conditions: 318.15 K, 101 kPa, Liquid

CCCCCOC(=O)CC [pentyl propanoate] + CCCCCCCCCCCCCCCCC
Conditions	excess molar enthalpy [kcal/mol]	excess molar volume [m3/mol]
[1], x1 = 0.1083	–	2.44e-07
[1], x1 = 0.2045	–	4.6e-07
[1], x1 = 0.2891	–	6.18e-07
[1], x1 = 0.3649	–	6.95e-07
[1], x1 = 0.4391	–	7.63e-07
[1], x1 = 0.5053	–	8.03e-07
[1], x1 = 0.5658	–	7.98e-07
[1], x1 = 0.6233	–	7.82e-07
[1], x1 = 0.6778	–	7.45e-07
[1], x1 = 0.7277	–	6.88e-07
[1], x1 = 0.7752	–	6.07e-07
[1], x1 = 0.8185	–	5.23e-07
[1], x1 = 0.8587	–	4.3e-07
[1], x1 = 0.8969	–	3.33e-07
[1], x1 = 0.9324	–	2.44e-07
[1], x1 = 0.9677	–	1.14e-07
[2], x1 = 0.1196	0.103	–
[2], x1 = 0.2114	0.166	–
[2], x1 = 0.3026	0.217	–
[2], x1 = 0.3904	0.251	–
[2], x1 = 0.469	0.269	–
[2], x1 = 0.5373	0.273	–
[2], x1 = 0.5951	0.267	–
[2], x1 = 0.6196	0.26	–
[2], x1 = 0.6625	0.247	–
[2], x1 = 0.7073	0.228	–
[2], x1 = 0.7545	0.203	–
[2], x1 = 0.8044	0.177	–
[2], x1 = 0.8552	0.143	–
[2], x1 = 0.9052	0.101	–
[2], x1 = 0.9542	0.0541	–

CCCOC(=O)CC [propyl propanoate] + CCCCCCC
Conditions	excess molar enthalpy [kcal/mol]	excess molar volume [m3/mol]
[1], x1 = 0.0283	–	9e-08
[1], x1 = 0.066	–	2.02e-07
[1], x1 = 0.1305	–	3.13e-07
[1], x1 = 0.1912	–	4.11e-07
[1], x1 = 0.2529	–	4.97e-07
[1], x1 = 0.3157	–	5.6e-07
[1], x1 = 0.3768	–	5.86e-07
[1], x1 = 0.437	–	6.03e-07
[1], x1 = 0.4973	–	6.01e-07
[1], x1 = 0.5557	–	5.81e-07
[1], x1 = 0.6132	–	5.43e-07
[1], x1 = 0.6703	–	4.91e-07
[1], x1 = 0.7248	–	4.24e-07
[1], x1 = 0.7801	–	3.67e-07
[1], x1 = 0.8355	–	2.94e-07
[1], x1 = 0.8887	–	2.07e-07
[1], x1 = 0.9444	–	1.24e-07
[2], x1 = 0.0639	0.0623	–
[2], x1 = 0.1325	0.109	–
[2], x1 = 0.2009	0.149	–
[2], x1 = 0.273	0.179	–
[2], x1 = 0.338	0.198	–
[2], x1 = 0.3985	0.208	–
[2], x1 = 0.4549	0.215	–
[2], x1 = 0.5052	0.218	–
[2], x1 = 0.5147	0.218	–
[2], x1 = 0.5577	0.214	–
[2], x1 = 0.6066	0.207	–
[2], x1 = 0.6615	0.194	–
[2], x1 = 0.7197	0.173	–
[2], x1 = 0.7781	0.147	–
[2], x1 = 0.8381	0.115	–
[2], x1 = 0.8975	0.0783	–
[2], x1 = 0.9534	0.0399	–

CCCOC(=O)CC [propyl propanoate] + CCCCCCCCC
Conditions	excess molar enthalpy [kcal/mol]	excess molar volume [m3/mol]
[1], x1 = 0.0358	–	1.43e-07
[1], x1 = 0.0804	–	2.79e-07
[1], x1 = 0.1547	–	4.77e-07
[1], x1 = 0.2247	–	6.11e-07
[1], x1 = 0.2939	–	7.16e-07
[1], x1 = 0.3601	–	7.97e-07
[1], x1 = 0.4243	–	8.28e-07
[1], x1 = 0.4879	–	8.32e-07
[1], x1 = 0.5463	–	8.3e-07
[1], x1 = 0.6022	–	7.94e-07
[1], x1 = 0.6569	–	7.54e-07
[1], x1 = 0.7113	–	6.79e-07
[1], x1 = 0.7635	–	6.03e-07
[1], x1 = 0.8139	–	4.89e-07
[1], x1 = 0.8623	–	4.1e-07
[1], x1 = 0.9092	–	3.02e-07
[1], x1 = 0.9537	–	1.55e-07
[2], x1 = 0.0729	0.0736	–
[2], x1 = 0.1505	0.13	–
[2], x1 = 0.2274	0.179	–
[2], x1 = 0.3035	0.216	–
[2], x1 = 0.3733	0.239	–
[2], x1 = 0.4372	0.25	–
[2], x1 = 0.4858	0.252	–
[2], x1 = 0.5248	0.252	–
[2], x1 = 0.5688	0.248	–
[2], x1 = 0.6152	0.239	–
[2], x1 = 0.6667	0.223	–
[2], x1 = 0.7215	0.198	–
[2], x1 = 0.7776	0.169	–
[2], x1 = 0.8356	0.135	–
[2], x1 = 0.8948	0.0929	–
[2], x1 = 0.951	0.0476	–
